The text below walks through data of ChEMBL document CHEMBL1144292, “Estrogen receptor ligands. Part 11: Synthesis and activity of isochromans and isothiochromans” (Bioorg Med Chem Lett, 2005).

The target in test [1] is T1, Estrogen receptor (Homo sapiens, UniProt P03372).
T1 sequence (P03372 whole entry): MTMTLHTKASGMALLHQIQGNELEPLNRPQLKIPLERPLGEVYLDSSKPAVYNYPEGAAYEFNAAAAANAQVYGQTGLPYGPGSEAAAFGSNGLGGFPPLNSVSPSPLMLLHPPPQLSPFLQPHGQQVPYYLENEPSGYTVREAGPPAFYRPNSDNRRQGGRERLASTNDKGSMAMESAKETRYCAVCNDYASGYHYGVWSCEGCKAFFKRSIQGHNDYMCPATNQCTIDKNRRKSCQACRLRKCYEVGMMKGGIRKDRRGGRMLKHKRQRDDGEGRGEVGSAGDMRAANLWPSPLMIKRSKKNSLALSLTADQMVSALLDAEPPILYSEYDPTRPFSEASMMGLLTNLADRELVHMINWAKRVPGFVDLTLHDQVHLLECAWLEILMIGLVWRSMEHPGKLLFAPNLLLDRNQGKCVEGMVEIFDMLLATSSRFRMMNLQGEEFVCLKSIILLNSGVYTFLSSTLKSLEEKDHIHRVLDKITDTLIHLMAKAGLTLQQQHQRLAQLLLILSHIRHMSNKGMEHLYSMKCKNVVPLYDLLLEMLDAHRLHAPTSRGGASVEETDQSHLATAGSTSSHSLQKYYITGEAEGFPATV
Description: Binding affinity for human estrogen receptor alpha

In test [2] the target is Estrogen receptor beta (Homo sapiens, UniProt Q92731).
Sequence of Estrogen receptor beta (Q92731 whole entry): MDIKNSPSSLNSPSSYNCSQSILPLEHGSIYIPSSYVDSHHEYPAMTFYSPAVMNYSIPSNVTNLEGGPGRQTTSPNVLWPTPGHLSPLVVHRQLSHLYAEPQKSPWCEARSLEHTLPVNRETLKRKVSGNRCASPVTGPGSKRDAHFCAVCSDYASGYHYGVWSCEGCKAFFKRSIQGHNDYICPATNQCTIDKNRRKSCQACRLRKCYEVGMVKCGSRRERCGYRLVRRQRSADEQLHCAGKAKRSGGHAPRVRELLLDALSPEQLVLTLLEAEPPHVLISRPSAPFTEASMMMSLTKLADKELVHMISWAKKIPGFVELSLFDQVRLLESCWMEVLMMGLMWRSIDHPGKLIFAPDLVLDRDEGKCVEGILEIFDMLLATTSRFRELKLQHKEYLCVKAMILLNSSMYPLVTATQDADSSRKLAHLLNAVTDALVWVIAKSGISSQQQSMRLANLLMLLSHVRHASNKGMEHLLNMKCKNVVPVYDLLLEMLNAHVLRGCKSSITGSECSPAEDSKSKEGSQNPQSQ
Description: Binding affinity for human estrogen receptor beta
Test [3] has as its target Estrogen receptor (Homo sapiens, UniProt Q92731+P03372). Conditions: mcf-7.
Description: Inhibition of MCF-7 cell proliferation

pIC50: −log10 of the molar value.

One may read the pIC50 as the IC50 on a negative log10 scale, so that one unit is a factor of ten. The IC50 is the concentration that gives 50% inhibition. The low end stands for inhibition by little substance, the high end for a need for much substance. In the case of `Oc1ccc2c(c1)CO[C@H](c1ccccc1)[C@@H]2c1ccc(OCCN2CCCC2)cc1`, the figures for the negative-log IC50 (pIC50) in test [1] and in test [2] were 8.62 and 8.44, respectively. Also, in test [3], the IC50 was determined as 0.15 nM.
With `Oc1ccc2c(c1)CS[C@H](c1ccccc1)[C@@H]2c1ccc(OCCN2CCCC2)cc1`, the values for the pIC50 in test [1] and in test [2] were 9.22 and 8.68, respectively. The IC50 in test [3] was 0.25 nM.
As for `COc1ccc2c(c1)CS[C@H](c1ccccc1)[C@@H]2c1ccc(OCCN2CCCC2)cc1`, the figures for the pIC50 in test [1] and in test [2] were 7.89 and 6.96, respectively. The same molecule registered an IC50 in test [3] of 164 nM.
The corresponding values for `COc1ccc2c(c1)CO[C@H](c1ccccc1)[C@@H]2c1ccc(OCCN2CCCC2)cc1` are 7.41, 6.50 and 57 nM.
